Assay results as given in patent publication US7084248B2, “Peptide composition and method for delivering substances into the cytosol of cells” (Gene Tools, LLC, priority 2004, dated 2006).

Test system: cultured animal cells
Assay: Functional assay of cytosolic delivery of a Morpholino antisense oligo (splice-correction luciferase system)
Format: cell-based
Settings: all-histidine peptides
From the text: In contrast to the above design flexibility, the respective sizes of the lipophilic and weak-base faces of the delivery peptide have a substantial impact on that peptide's delivery efficiency. […] These assays utilized an established functional measurement of cytosolic delivery of a Morpholino antisense oligo in cultured cells (Kang, 1998). A representative test procedure of this type is described in Example 6, in a later section of his application.
The most definitive assessment of cytosolic delivery is one wherein when a cargo is delivered into the cytosol of a cell it generates a quantifiable signal proportional to the amount of cargo delivered into the cytosol. Also, for definitive results, that cargo should be completely stable within the cytosol so that increases due to delivery are not underestimated due to losses from degradation.
In the Kole test system (commercially available from GENE TOOLS, LLC, Philomath, Oreg.) a cell line has been stably transfected with a gene that codes for an RNA transcript that includes a mutation that generates a splicing error which acts to prevent the translation of luciferase coded by that RNA transcript. […] This leads to normal translation of the luciferase, and the light emission from that luciferase is readily quantitated in a luminometer. […]

## poly-histidine
  delivery of a Morpholino antisense oligo into the cytosol of cultured animal cells: neither poly-histidine nor defined-length oligo-histidines achieved significant delivery
